Assay results published in patent US20200247855A1, “THERAPY AND DIAGNOSTICS” (OXFORD UNIVERSITY INNOVATION LIMITED, priority 2017, published 2020).
Residues, ends and D or L forms follow the SMILES beside them. *: point of attachment. FITC = O=C1OC2(c3ccc(O)cc3Oc3cc(O)ccc32)c2ccc(NC(=S)*)cc21

biological target: T1, CCL8 (Homo sapiens, UniProt P80075); assay: Fluorescence polarisation (anisotropy) assay; type: binding; details: BK1.1FITC Ala mutants, CCL8
T1 construct: SUMO (in-house protein only) (cleaved yes); made in house; host or cells: Escherichia coli RosettaGami 2 (DE3)
T1 sequence (P80075 24-99): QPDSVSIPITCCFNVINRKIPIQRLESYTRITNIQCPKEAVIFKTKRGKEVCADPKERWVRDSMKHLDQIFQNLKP
Description: FIG. 14. Characterisation of P672_PEP-FITC by fluorescence polarisation. […] Residue C30 was mutated to A to avoid an unpaired cysteine residue. The residues corresponding to the above peptide are wholly contained within the CCL8-binding region of P672_RHIPU transferred in the hybrid evasin P672:EVA1 (SEQ ID 76, see FIG. 5). […] (SEQ ID NO: 90). FIG. 14(A). […] The curve was fitted to the two site-total and non-specific binding model in GraphPad Prism 6. Data are shown as mean and SEM of three independent experiments, with each independent experiment performed as three technical replicates. The affinity constant Kd was calculated in GraphPad Prism from the curve fit with the standard error reported.
FIG. 14(B). […] The measured fluorescence anisotropy (y-axis) of P672_PEP-FITC (50 nM) following binding to a fixed dose (1 μM)) of CCL7, CCL8, CCL18 and CXCL1 (negative control). […] Statistical significance was determined using one-way ANOVA with Sidak's correction for multiple comparisons using Graph Pad Prism 6. **=p<0.005, ****=P<0.00005, ns=not significant.
FIG. 15(C). […] In each case 100 μM (++) or […] (+) of P672_PEP was incubated with P672_PEP-FITC (50 nM)/chemokine (1 μM CCL7 and CCL18; 500 nM CCL8) and the resulting anisotropy measured. […] Experiment carried out in triplicate where each data point is the average of one experiment carried out in technical triplicate. Mean with SEM shown and statistical significance was determined using one-way ANOVA with Sidak's correction for multiple comparisons using Graph Pad Prism 6. *=p<0.05, ***=p<0.0005, ****=P<0.00005, ns=not significant.
Fluorescence polarization assays were performed using a Clariostar (BMG Tech) plate reader with the supplied FITC excitation and emission filters using 96 half area well plates (Corning). The buffer used (FP assay buffer) was 50 mM HEPES, 150 mM NaCl, 0.1% BSA, 0.002% TWEEN-20, 0.2% DMSO, pH 7.4 and the final volume in each well was 30 μL. Polarization was converted to anisotropy using the equation A=(2*P)/(3−P) where P is polarization and A is anisotropy. For each peptide tested the gain was set to 35 mP and adjusted to a well containing fluorescent peptide only. The polarization of the emitted light in the FITC emission channel was then determined. Experiments were performed as two technical and three biological replicates. Screening of P672 peptide fragments was achieved through incubation of each peptide (50 nM) with 1 μM CCL8 (Peprotech) for 30 minutes in FP assay buffer and the resulting anisotropy of the emitted light determined as above. The chemokine cross binding screen was performed by incubating 1 μM chemokine (Peprotech) with 50 nM BK1.1FITC for half an hour in FP assay buffer and the resulting anisotropy of the emitted light determined as above. […] The anisotropy was plotted as a function of CCL8 concentration and fitted to the equation: Y=Bmax*X/(KD+X)+NS*X+Background, where Y is the measured anisotropy, X is the concentration of CCL8 added, Bmax is the maximum binding, KD is the equilibrium dissociation constant, NS is the slope of the nonlinear regression and Background is the anisotropy when no CCL8 is present, in Graph Pad Prism. Displacement assays were carried out with CCL7, CCL8, and CCL18 (Peprotech, 1 μM). […] For all FP assays, the experiments were carried out as two technical and three biological replicates.

Compound	Fold change (Kd versus WT)
CC(C)[C@H](NC(=O)[C@@H]1CCCN1C(=O)[C@H](CCCCN)NC(=O)[C@H](Cc1ccccc1)NC(=O)[C@H](Cc1ccccc1)NC(=O)[C@H](CC(=O)O)NC(=O)[C@H](CCC(=O)O)NC(=O)[C@H](Cc1ccc(O)cc1)NC(=O)[C@H](CC(=O)O)NC(=O)[C@H](CCC(=O)O)NC(=O)[C@H](C)NC(=O)[C@H](CCC(=O)O)NC(=S)Nc1ccc2c(c1)C(=O)OC21c2ccc(O)cc2Oc2cc(O)ccc21)C(=O)N[C@H](C(=O)N[C@@H](C)C(=O)N[C@@H](Cc1ccc(O)cc1)C(=O)N[C@@H](Cc1ccccc1)C(N)=O)[C@@H](C)O [D18A] ({FITC}-EAEDYEDFFKPVTAYF-NH2)	2.5
CC(C)[C@H](NC(=O)[C@@H]1CCCN1C(=O)[C@H](CCCCN)NC(=O)[C@H](Cc1ccccc1)NC(=O)[C@H](Cc1ccccc1)NC(=O)[C@H](CC(=O)O)NC(=O)[C@H](CCC(=O)O)NC(=O)[C@H](Cc1ccc(O)cc1)NC(=O)[C@H](C)NC(=O)[C@H](CCC(=O)O)NC(=O)[C@H](CC(=O)O)NC(=O)[C@H](CCC(=O)O)NC(=S)Nc1ccc2c(c1)C(=O)OC21c2ccc(O)cc2Oc2cc(O)ccc21)C(=O)N[C@H](C(=O)N[C@@H](C)C(=O)N[C@@H](Cc1ccc(O)cc1)C(=O)N[C@@H](Cc1ccccc1)C(N)=O)[C@@H](C)O [D20A] ({FITC}-EDEAYEDFFKPVTAYF-NH2)	1.5
CC(C)[C@H](NC(=O)[C@@H]1CCCN1C(=O)[C@H](CCCCN)NC(=O)[C@H](Cc1ccccc1)NC(=O)[C@H](Cc1ccccc1)NC(=O)[C@H](C)NC(=O)[C@H](CCC(=O)O)NC(=O)[C@H](Cc1ccc(O)cc1)NC(=O)[C@H](CC(=O)O)NC(=O)[C@H](CCC(=O)O)NC(=O)[C@H](CC(=O)O)NC(=O)[C@H](CCC(=O)O)NC(=S)Nc1ccc2c(c1)C(=O)OC21c2ccc(O)cc2Oc2cc(O)ccc21)C(=O)N[C@H](C(=O)N[C@@H](C)C(=O)N[C@@H](Cc1ccc(O)cc1)C(=O)N[C@@H](Cc1ccccc1)C(N)=O)[C@@H](C)O [D23A] ({FITC}-EDEDYEAFFKPVTAYF-NH2)	1.5
CC(C)[C@H](NC(=O)[C@@H]1CCCN1C(=O)[C@H](CCCCN)NC(=O)[C@H](Cc1ccccc1)NC(=O)[C@H](Cc1ccccc1)NC(=O)[C@H](CC(=O)O)NC(=O)[C@H](CCC(=O)O)NC(=O)[C@H](Cc1ccc(O)cc1)NC(=O)[C@H](CC(=O)O)NC(=O)[C@H](CCC(=O)O)NC(=O)[C@H](CC(=O)O)NC(=O)[C@H](C)NC(=S)Nc1ccc2c(c1)C(=O)OC21c2ccc(O)cc2Oc2cc(O)ccc21)C(=O)N[C@H](C(=O)N[C@@H](C)C(=O)N[C@@H](Cc1ccc(O)cc1)C(=O)N[C@@H](Cc1ccccc1)C(N)=O)[C@@H](C)O [E17A] ({FITC}-ADEDYEDFFKPVTAYF-NH2)	1.2
CC(C)[C@H](NC(=O)[C@@H]1CCCN1C(=O)[C@H](CCCCN)NC(=O)[C@H](Cc1ccccc1)NC(=O)[C@H](Cc1ccccc1)NC(=O)[C@H](CC(=O)O)NC(=O)[C@H](CCC(=O)O)NC(=O)[C@H](Cc1ccc(O)cc1)NC(=O)[C@H](CC(=O)O)NC(=O)[C@H](C)NC(=O)[C@H](CC(=O)O)NC(=O)[C@H](CCC(=O)O)NC(=S)Nc1ccc2c(c1)C(=O)OC21c2ccc(O)cc2Oc2cc(O)ccc21)C(=O)N[C@H](C(=O)N[C@@H](C)C(=O)N[C@@H](Cc1ccc(O)cc1)C(=O)N[C@@H](Cc1ccccc1)C(N)=O)[C@@H](C)O [E19A] ({FITC}-EDADYEDFFKPVTAYF-NH2)	2.1
CC(C)[C@H](NC(=O)[C@@H]1CCCN1C(=O)[C@H](CCCCN)NC(=O)[C@H](Cc1ccccc1)NC(=O)[C@H](Cc1ccccc1)NC(=O)[C@H](CC(=O)O)NC(=O)[C@H](C)NC(=O)[C@H](Cc1ccc(O)cc1)NC(=O)[C@H](CC(=O)O)NC(=O)[C@H](CCC(=O)O)NC(=O)[C@H](CC(=O)O)NC(=O)[C@H](CCC(=O)O)NC(=S)Nc1ccc2c(c1)C(=O)OC21c2ccc(O)cc2Oc2cc(O)ccc21)C(=O)N[C@H](C(=O)N[C@@H](C)C(=O)N[C@@H](Cc1ccc(O)cc1)C(=O)N[C@@H](Cc1ccccc1)C(N)=O)[C@@H](C)O [E22A] ({FITC}-EDEDYADFFKPVTAYF-NH2)	4.0
CC(C)[C@H](NC(=O)[C@@H]1CCCN1C(=O)[C@H](CCCCN)NC(=O)[C@H](Cc1ccccc1)NC(=O)[C@H](C)NC(=O)[C@H](CC(=O)O)NC(=O)[C@H](CCC(=O)O)NC(=O)[C@H](Cc1ccc(O)cc1)NC(=O)[C@H](CC(=O)O)NC(=O)[C@H](CCC(=O)O)NC(=O)[C@H](CC(=O)O)NC(=O)[C@H](CCC(=O)O)NC(=S)Nc1ccc2c(c1)C(=O)OC21c2ccc(O)cc2Oc2cc(O)ccc21)C(=O)N[C@H](C(=O)N[C@@H](C)C(=O)N[C@@H](Cc1ccc(O)cc1)C(=O)N[C@@H](Cc1ccccc1)C(N)=O)[C@@H](C)O [F24A] ({FITC}-EDEDYEDAFKPVTAYF-NH2)	1.5
CC(C)[C@H](NC(=O)[C@@H]1CCCN1C(=O)[C@H](CCCCN)NC(=O)[C@H](C)NC(=O)[C@H](Cc1ccccc1)NC(=O)[C@H](CC(=O)O)NC(=O)[C@H](CCC(=O)O)NC(=O)[C@H](Cc1ccc(O)cc1)NC(=O)[C@H](CC(=O)O)NC(=O)[C@H](CCC(=O)O)NC(=O)[C@H](CC(=O)O)NC(=O)[C@H](CCC(=O)O)NC(=S)Nc1ccc2c(c1)C(=O)OC21c2ccc(O)cc2Oc2cc(O)ccc21)C(=O)N[C@H](C(=O)N[C@@H](C)C(=O)N[C@@H](Cc1ccc(O)cc1)C(=O)N[C@@H](Cc1ccccc1)C(N)=O)[C@@H](C)O [F25A] ({FITC}-EDEDYEDFAKPVTAYF-NH2)	4.6
CC(C)[C@H](NC(=O)[C@@H]1CCCN1C(=O)[C@H](CCCCN)NC(=O)[C@H](Cc1ccccc1)NC(=O)[C@H](Cc1ccccc1)NC(=O)[C@H](CC(=O)O)NC(=O)[C@H](CCC(=O)O)NC(=O)[C@H](Cc1ccc(O)cc1)NC(=O)[C@H](CC(=O)O)NC(=O)[C@H](CCC(=O)O)NC(=O)[C@H](CC(=O)O)NC(=O)[C@H](CCC(=O)O)NC(=S)Nc1ccc2c(c1)C(=O)OC21c2ccc(O)cc2Oc2cc(O)ccc21)C(=O)N[C@H](C(=O)N[C@@H](C)C(=O)N[C@@H](Cc1ccc(O)cc1)C(=O)N[C@@H](C)C(N)=O)[C@@H](C)O [F32A] ({FITC}-EDEDYEDFFKPVTAYA-NH2)	2.3
CC(C)[C@H](NC(=O)[C@@H]1CCCN1C(=O)[C@H](C)NC(=O)[C@H](Cc1ccccc1)NC(=O)[C@H](Cc1ccccc1)NC(=O)[C@H](CC(=O)O)NC(=O)[C@H](CCC(=O)O)NC(=O)[C@H](Cc1ccc(O)cc1)NC(=O)[C@H](CC(=O)O)NC(=O)[C@H](CCC(=O)O)NC(=O)[C@H](CC(=O)O)NC(=O)[C@H](CCC(=O)O)NC(=S)Nc1ccc2c(c1)C(=O)OC21c2ccc(O)cc2Oc2cc(O)ccc21)C(=O)N[C@H](C(=O)N[C@@H](C)C(=O)N[C@@H](Cc1ccc(O)cc1)C(=O)N[C@@H](Cc1ccccc1)C(N)=O)[C@@H](C)O [K26A] ({FITC}-EDEDYEDFFAPVTAYF-NH2)	0.8
CC(C)[C@H](NC(=O)[C@@H]1CCCN1C(=O)[C@H](CCCCN)NC(=O)[C@H](Cc1ccccc1)NC(=O)[C@H](Cc1ccccc1)NC(=O)[C@H](CC(=O)O)NC(=O)[C@H](CCC(=O)O)NC(=O)[C@H](Cc1ccc(O)cc1)NC(=O)[C@H](CC(=O)O)NC(=O)[C@H](CCC(=O)O)NC(=O)[C@H](CC(=O)O)NC(=O)[C@H](CCC(=O)O)NC(=S)Nc1ccc2c(c1)C(=O)OC21c2ccc(O)cc2Oc2cc(O)ccc21)C(=O)N[C@@H](C)C(=O)N[C@@H](C)C(=O)N[C@@H](Cc1ccc(O)cc1)C(=O)N[C@@H](Cc1ccccc1)C(N)=O [T29A] ({FITC}-EDEDYEDFFKPVAAYF-NH2)	2.0
